Tests used:
COX-2 [1] = target: T1, COX-2 (Mus musculus, UniProt Q05769); experiment: COX-2 specific activity in cell-free extracts of LPS-stimulated RAW 264.7 cells (PGE2 by RIA); type: biochemical, murine
T1 construct: using total unfractionated cell extracts; endogenous in cells; host or cells: RAW 264.7 cells, LPS-induced; cell-free extract
T1 sequence (Q05769 18-604): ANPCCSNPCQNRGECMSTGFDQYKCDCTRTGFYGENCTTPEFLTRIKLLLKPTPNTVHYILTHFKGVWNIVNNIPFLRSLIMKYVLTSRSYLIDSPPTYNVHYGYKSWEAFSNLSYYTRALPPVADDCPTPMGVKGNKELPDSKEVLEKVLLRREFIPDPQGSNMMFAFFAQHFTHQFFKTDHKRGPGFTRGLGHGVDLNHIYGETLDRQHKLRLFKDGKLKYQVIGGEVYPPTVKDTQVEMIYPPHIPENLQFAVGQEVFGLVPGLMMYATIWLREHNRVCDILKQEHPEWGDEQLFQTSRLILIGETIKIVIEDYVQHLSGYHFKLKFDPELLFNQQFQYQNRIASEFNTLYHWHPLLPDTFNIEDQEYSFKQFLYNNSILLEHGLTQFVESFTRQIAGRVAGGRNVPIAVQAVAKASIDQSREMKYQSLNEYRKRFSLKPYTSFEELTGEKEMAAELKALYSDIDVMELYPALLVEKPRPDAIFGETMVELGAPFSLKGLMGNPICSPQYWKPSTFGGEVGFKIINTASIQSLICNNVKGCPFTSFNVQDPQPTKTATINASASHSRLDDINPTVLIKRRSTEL
Method: Raw 264.7 cells were stimulated with LPS and cell-free extracts were prepared as follows. RAW 264.7 cells were induced with LPS (100 ng/ml) in the presence or absence of tetracyclines or hydrocortisone for 14-20 hours. Following induction, the cells were pelleted at 4° C. and resuspended in Tris buffer: 10 mM, pH 7.4 containing 10 μg/ml each of chymostatin, antipain, leupeptin and pepstatin, 1 mM DDT and 1 mM PMSF. Cells were lysed in a Polytron PA 1200 homogenizer (Kinematica AG, Switzerland) with the cocktail of protease inhibitors after 3 cycles of rapid freeze-thawing. The lysate was centrifuged at 18,000 at 4° C. in an eppendorf centrifuge, and the resulting supernatant was used as cell-free extracts. The protein was measured by BCA assay reagent (Pierce, Rockford, Ill.) using BSA as standard. […] The specific enzyme activity was defined as ng of PGE2 released/mg protein/37° C. for 20 minutes.
RAW 264.7 cells were stimulated with 1 μg/ml of LPS for 16 hours and cell-free extracts were prepared as described above. The extracts were incubated with different modulators for 20 minutes at 37° C. before adding the substrate to initiate the enzyme reaction, which was terminated after 30 minutes by heat inactivation. The data represent one of the two experiments, the PGE2 analysis from each sample was done in triplicates n=3. The p value is a comparison between control and experimentals.

TNFα = TNFα release in the medium by HEK 293 cells permanently transfected with human proTNFα (ELISA); type: cell-based; conditions: words; for Effect on spontaneous TNFα release: FIG. 8, 16 hours
Method: HEK 293 cells were transfected with the proTNFα cDNA (wild) to prepare a stable cell line. […] A mutant form of proTNFα cDNA which could not be cleaved by the endogenous TNFα convertase (TACE) to release soluble TNFα was also transfected in separate human HEK 293 cells. The soluble TNFα was estimated by ELISA from the wild type and mutant transfected cells from the medium (FIG. 6).
HEK 293 cells were grown as previously described by American Type Culture Collection (ATCC). […] The HEK 293 cells were incubated with CMT-3 to examine the effects of CMT-3 on TNFα release in the medium.
HEK 293 cells were grown under the conditions previously described by ATCC. Various compounds, including CMT-3 and doxycycline/minocyclines were incubated with proTNFα transfected HEK 293 cells releasing TNFα in the medium at 16 hours. […] Soluble TNFα was estimated by ELISA from the medium.

OA-affected cartilage [2] = experiment: Spontaneous PGE2 release by OA-affected cartilage (ex vivo organ culture); type: cell-based, human; conditions: Table 2; 5 μg/ml
Method: (§1) Human osteoarthritis affected cartilage spontaneously release nitric oxide (NO) and PGE2 in the medium as previously reported (Amin et al, 1995a; 1997a). The OA-organ cultures were set up as described (Amin et al, 1995a; 1997a). Briefly, total knee articular cartilage from tibial plateau and femoral condyle were harvested from OA-affected patients. The cartilage was mixed and cut into 3-mm discs and 4-6 discs were placed in triplicate or quadruplicate, in a 24-well plate in 2.0 ml of Ham's F-12 medium supplemented with 0.2% endotoxin free human albumin, 10 mM Hepes pH 7.4 and antibiotics in the presence of various modulators, as previously described (Amin et al, 1995a; 1997a). CMT-8 was used at pharmacologically relevant concentrations in DMSO (<0.01% final concentration) as carrier. An equivalent amount of DMSO was also added in the control cultures.
(§2) The p value between control and CMT-8 treated values for PGE2≤0.1 (insignificant) whereas the p values between NMMA treated cartilage and CMT-8 treated cartilage was ≤0.001 (significant). The data are represented as mean±SD as examined by T test when n=3. Data represent±SD value as determined by Student's t test n=4. The P values described are compared with control unstimulated OA-cartilage. The data represents one of the two similar experiments. P values for PGE2 and Nitrite=^a≤0.5; ^b≤0.1; ^c≤0.05; ^d≤0.01.

RAW 264.7 cells [3] = experiment: PGE2 production/accumulation in LPS-stimulated RAW 264.7 cells; type: cell-based, murine; conditions: for inhibition at 10 µg/mL: Mus musculus, RAW264.7, 16 h, read-out: PGE2 % Inhibition or (Increase)
Method: (§3) Murine macrophages (RAW 263.7 cells) which were grown in Dulbecco's modified eagle medium (DMEM) containing 10% fetal bovine serum, 2 mM glutamine, 50 U/ml penicillin and 50 μg/ml streptomycin, were stimulated with 100 ng/ml LPS to induce both NOS and COX-2 at 16 hr. […] The data presented in FIG. 1 represents mean±SD as examined by T test were n=3.
(§4) The effects of CMTs 1, 2, 3, 5 and 8 on PGE2 and NO accumulation in RAW 264.7 cells were further evaluated as described above for CMT-3. […]

RAW 264.7 cells [4] = experiment: Nitrite (NO) production/accumulation in LPS-stimulated RAW 264.7 cells; type: cell-based, murine; conditions: for inhibition at 10 µg/mL: Mus musculus, RAW264.7, 16 h
Method: as §3, §4

OA-affected cartilage [5] = experiment: Spontaneous nitrite/nitric oxide release by OA-affected cartilage (ex vivo organ culture); type: cell-based, human; conditions: Table 2; 5 μg/ml
Method: as §1, §2

NOS = NOS expression in LPS-stimulated murine macrophages; type: cell-based; conditions: FIG. 2; LPS 100 ng/ml; words
Method: (§5) RAW 263.7 cells were grown as previously described (Amin et al, 1995b). Murine macrophages stimulated with 100 ng/ml LPS were incubated with CMT-3 or tunicamycin (a glycosylation inhibitor). […] Nitrite and PGE2 were estimated as previously described (Amin et al, 1995b). It is quite possible that CMT-3 may inhibit COX-2 and PGE2 production by post translational modification of COX-2 which may be similar to tunicamycin inhibition. The data represents the mean±SD evaluated by T test (n=3).

COX-2 [6] = experiment: Expression/modification (size) of COX-2 in LPS-stimulated murine macrophages, Western blot; type: cell-based; conditions: LPS 100 ng/ml, words
Method: as §5
Murine macrophage cells were cultivated as previously described (Amin et al, 1995b). […] cells were stimulated with 100 ng/ml of LPS in the presence of CMT-3, CMT-5 and glycosylation inhibitor, tunicamycin. The cells were grown for 16 hr and harvested. The cell free extracts were prepared as previously described (Amin et al, 1995b). In FIG. 4A, 50 μg of protein was loaded in each well and run on SDS-PAGE gels and blotted onto Western blots using a specific anti COX-2 antibody as previously described (Amin et al, 1997a). The positive control is a standard COX-2. […] The size is approximately 2000 D smaller (CMT-3 form) than the native COX-2 shown as a standard. […] These experiments indicate that CMT-3 induces modification of the COX-2 protein. The SDS PAGE analysis and Western blotting of COX-2 was carried out as described above.

[7] = Experiment II, LPS 100 ng/ml, compound 10 μg/ml, 16 hours
[8] = Experiment I, LPS 100 ng/ml, compound 10 μg/ml, 16 hours

CC(=O)Oc1ccccc1C(=O)O [Aspirin, aspirin, reference compound]
Effect on specific activity of COX-2 (COX-2 [1]; CMT-3 27 μM, CMT-8 27 μM, aspirin 56 μM, indomethacin 28 μM, words): significantly inhibited the specific activity of COX-2
COX-2 Specific Activity (COX-2 [1]; Table 3, cell-free extracts, 10 μg (aspirin amount not given)): 2.1 ± 0.1 PGE2 ng/mg protein

C[C@@]1(O)c2cccc(O)c2C(O)=C2C(=O)[C@]3(O)C(O)=C(C(N)=O)C(=O)C[C@@H]3C[C@@H]21 [CMT-1, 4-dedimethylaminotetracycline]
Effect on spontaneous TNFα release (TNFα): inhibit the spontaneous TNFα release
Inhibition of TNFα (summary statement) (TNFα; HEK 293 cells transfected with proTNFα cDNA, low levels): inhibiting TNFα
PGE2 (OA-affected cartilage [2]): 131.8 ± 37.7 ng/mL
PGE2 accumulation (RAW 264.7 cells [3]; 16 h, 10 ug/mL): 31.5 ± 2.5 ng/mL
PGE2 accumulation (RAW 264.7 cells [3]; [7]): 30.2 ± 8.0 ng/mL
Nitrite (RAW 264.7 cells [4]; [8]): 50.8 µM
Nitrite (RAW 264.7 cells [4]; [7]): 20.3 µM
Nitrite (OA-affected cartilage [5]): 82.0 ± 33.0 µM

CN(C)C1C(=O)C(C#N)=C(O)C2(O)C(=O)C3=C(O)c4c(O)cccc4C(C)(O)C3CC12 (stereo not shown) [CMT-2]
Effect on spontaneous TNFα release (TNFα): not CMT-2 and CMT-5, inhibit the spontaneous TNFα release
PGE2 (OA-affected cartilage [2]): 145.2 ± 61.6 ng/mL
PGE2 accumulation (RAW 264.7 cells [3]; [8]): 26.8 ± 8.8 ng/mL
PGE2 accumulation (RAW 264.7 cells [3]; [7]): 22.9 ± 5.0 ng/mL
Nitrite (RAW 264.7 cells [4]; [7]): 23.3 ± 3.5 µM
Nitrite (OA-affected cartilage [5]): 84.0 ± 20.0 µM

C[C@@H]1C[C@@H]([C@H](O)CC2CC(=O)NC(=O)C2)C(=O)[C@@H](C)C1 [Cycloheximide, cycloheximide, reference compound]
Effect on TNFα release in the medium (TNFα; FIG. 7): inhibited the release of TNFα in the medium
Effect on spontaneous TNFα release (TNFα): inhibit the release of TNFα

C[C@]12CCC(=O)C=C1CC[C@@H]1[C@@H]2[C@@H](O)C[C@@]2(C)[C@H]1CC[C@]2(O)C(=O)CO [Hydrocortisone, hydrocortisone, reference compound]
PGE2 accumulation (RAW 264.7 cells [3]; 16 h, 10 ug/mL): 12.3 ± 2.6 ng/mL
PGE2 accumulation (RAW 264.7 cells [3]; [7]): 9.5 ± 0.5 ng/mL
inhibition at 10 µg/mL (RAW 264.7 cells [3]; [8]): 52%
inhibition at 10 µg/mL (RAW 264.7 cells [3]; [7]): 50%
Nitrite (RAW 264.7 cells [4]; 16 h, 10 ug/mL): 34.3 µM
Nitrite (RAW 264.7 cells [4]; [7]): 12.9 µM
inhibition at 10 µg/mL (RAW 264.7 cells [4]; [8]): 32%
inhibition at 10 µg/mL (RAW 264.7 cells [4]; [7]): 40%

tunicamycin [reference compound]
Effect on PGE2 production (RAW 264.7 cells [3]; FIG. 2, LPS 100 ng/ml, words): inhibit
Effect on NO production (RAW 264.7 cells [4]; FIG. 2, LPS 100 ng/ml, words): inhibit
Effect on NOS expression (NOS): inhibit
Effect on COX-2 expression (COX-2 [6]; FIG. 2): inhibit
Effect on size of COX-2 (COX-2 [6]; FIG. 4A, 16 hr, Western blot): much smaller than the native form

— patent US6319910A, “Method for inhibiting cyclooxygenase-2 and tumor necrosis factor alpha” (Hospital for Joint Diseases, priority 1998, dated 2001)
